According to US9090571B2, “Meglumine salt of 6-fluoro-3-hydroxy-2-pyrazine carboxamide” (TOYAMA CHEMICAL CO., LTD., priority 2010, dated 2015):

Assay: Solubility in water (statement)
Assay type: physicochemical

Row | SMILES | solubility in water
1 | NC(=O)c1nc(F)c[nH]c1=O [Compound A, 6-fluoro-3-hydroxy-2-pyrazinecarboxamide] | low solubility in water
2 | CNC[C@H](O)[C@@H](O)[C@H](O)[C@H](O)CO.NC(=O)c1nc(F)cnc1O [Salt A, meglumine salt of 6-fluoro-3-hydroxy-2-pyrazinecarboxamide] | high
